# According to ChEMBL document CHEMBL3822442, “Synthesis and Pharmacological Characterization of Novel Glucagon-like Peptide-2 (GLP-2) Analogues with Low Systemic Clearance” (J Med Chem, 2016):
# Assays:
# Rattus norvegicus = assay: Intestinotrophic activity in Sprague-Dawley rat assessed as increase in intestinal growth at 1000 nmol/kg, sc once daily through bolus administration for 5 days relative to control; format: functional
# [1] = target: T1, Glucagon-like peptide 2 receptor (Rattus norvegicus, UniProt Q9Z0W0); assay: Agonist activity at rat GLP2R expressed in HEK293 cells after 5 hrs by luciferase reporter gene assay; format: cell-based
# T1 sequence (Q9Z0W0 whole entry): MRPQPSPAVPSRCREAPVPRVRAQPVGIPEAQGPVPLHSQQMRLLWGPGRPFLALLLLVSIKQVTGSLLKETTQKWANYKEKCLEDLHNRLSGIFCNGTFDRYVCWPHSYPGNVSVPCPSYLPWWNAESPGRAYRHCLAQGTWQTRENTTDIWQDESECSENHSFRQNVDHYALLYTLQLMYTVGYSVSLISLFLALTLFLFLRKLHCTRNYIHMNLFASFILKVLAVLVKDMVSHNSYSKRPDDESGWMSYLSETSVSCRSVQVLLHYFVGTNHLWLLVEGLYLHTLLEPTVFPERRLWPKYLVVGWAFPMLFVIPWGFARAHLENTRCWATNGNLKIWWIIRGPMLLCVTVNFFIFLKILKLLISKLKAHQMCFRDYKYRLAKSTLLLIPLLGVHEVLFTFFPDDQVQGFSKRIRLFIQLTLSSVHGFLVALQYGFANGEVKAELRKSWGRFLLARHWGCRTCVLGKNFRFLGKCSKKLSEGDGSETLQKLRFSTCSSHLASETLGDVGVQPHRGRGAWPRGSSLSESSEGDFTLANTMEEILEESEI
# [2] = Half life in sc dosed human; format: ADME, organism-based; settings: in vivo
# [3] = target: Glucagon-like peptide 1 receptor (Homo sapiens, UniProt P43220); assay: Agonist activity at human GLP1R expressed in HEK293 cells after 5 hrs by luciferase reporter gene assay; format: cell-based
# [4] = Protein binding in rat plasma at 200 to 1000 ng/ml incubated for 15 mins by LC/MS/MS based ultracentrifugation method; format: ADME, cell-free; settings: read-out: PPB (converted)
# Sequence of Glucagon-like peptide 1 receptor (P43220 whole entry): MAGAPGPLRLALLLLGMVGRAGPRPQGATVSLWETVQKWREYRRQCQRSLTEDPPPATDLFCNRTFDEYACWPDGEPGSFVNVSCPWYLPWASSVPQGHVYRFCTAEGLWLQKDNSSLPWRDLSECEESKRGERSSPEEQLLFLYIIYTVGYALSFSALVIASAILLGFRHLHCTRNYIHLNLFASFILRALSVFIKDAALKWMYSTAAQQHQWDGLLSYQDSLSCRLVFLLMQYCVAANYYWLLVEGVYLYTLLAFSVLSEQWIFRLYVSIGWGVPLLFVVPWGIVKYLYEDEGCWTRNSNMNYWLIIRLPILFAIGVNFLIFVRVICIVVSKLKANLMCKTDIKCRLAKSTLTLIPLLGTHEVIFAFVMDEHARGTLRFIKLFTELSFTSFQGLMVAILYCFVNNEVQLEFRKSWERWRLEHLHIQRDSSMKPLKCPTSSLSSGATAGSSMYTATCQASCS
EC50 [1],half-life [2],EC50 [3],fraction unbound at 0.25 h [4],Compound,Activity (Rattus norvegicus)
,,,,CCCC[C@H](NC(=O)[C@H](CCC(=O)O)NC(=O)[C@H](CC(=O)O)NC(=O)[C@H](CO)NC(=O)[C@H](Cc1ccccc1)NC(=O)[C@H](CO)NC(=O)CNC(=O)[C@H](CC(=O)O)NC(=O)CNC(=O)[C@@H](N)Cc1cnc[nH]1)C(=O)N[C@H](Cc1ccccc1)C(=O)N[C@H](C(=O)N[C@H](C(=O)N[C@@H](CC(C)C)C(=O)N[C@@H](CC(=O)O)C(=O)N[C@@H](CC(C)C)C(=O)N[C@@H](CC(C)C)C(=O)N[C@@H](C)C(=O)N[C@@H](C)C(=O)N[C@@H](CCCNC(=N)N)C(=O)N[C@@H](CC(=O)O)C(=O)N[C@@H](Cc1ccccc1)C(=O)N[C@H](C(=O)N[C@@H](CC(N)=O)C(=O)N[C@@H](Cc1c[nH]c2ccccc12)C(=O)N[C@@H](CC(C)C)C(=O)N[C@H](C(=O)N[C@@H](CCC(N)=O)C(=O)N[C@H](C(=O)N[C@@H](CCCCN)C(=O)N[C@H](C(=O)N[C@H](C(=O)N[C@@H](CC(=O)O)C(N)=O)[C@@H](C)O)[C@@H](C)CC)[C@@H](C)O)[C@@H](C)CC)[C@@H](C)CC)[C@@H](C)CC)[C@@H](C)O,61.2%
0.08 nM,3 h,> 1000 nM,0.419,CC[C@H](C)[C@H](NC(=O)[C@H](Cc1ccccc1)NC(=O)[C@H](CC(=O)O)NC(=O)[C@H](CCCNC(=N)N)NC(=O)[C@H](C)NC(=O)[C@H](C)NC(=O)[C@H](CC(C)C)NC(=O)[C@H](CC(N)=O)NC(=O)[C@H](CC(=O)O)NC(=O)[C@H](CC(C)C)NC(=O)[C@@H](NC(=O)[C@@H](NC(=O)[C@H](CC(N)=O)NC(=O)[C@H](CCSC)NC(=O)[C@H](CCC(=O)O)NC(=O)[C@H](CC(=O)O)NC(=O)[C@H](CO)NC(=O)[C@H](Cc1ccccc1)NC(=O)[C@H](CO)NC(=O)CNC(=O)[C@H](CC(=O)O)NC(=O)CNC(=O)[C@@H](N)Cc1c[nH]cn1)[C@@H](C)O)[C@@H](C)CC)C(=O)N[C@@H](CC(N)=O)C(=O)N[C@@H](Cc1c[nH]c2ccccc12)C(=O)N[C@@H](CC(C)C)C(=O)N[C@H](C(=O)N[C@@H](CCC(N)=O)C(=O)N[C@H](C(=O)N[C@@H](CCCCN)C(=O)N[C@H](C(=O)N[C@H](C(=O)N[C@@H](CC(=O)O)C(=O)O)[C@@H](C)O)[C@@H](C)CC)[C@@H](C)O)[C@@H](C)CC [TEDUGLUTIDE],39%
